Some results are limits rather than exact numbers.

The source of these data is patent US5998596A, “Inhibition of protein kinase activity by aptameric action of oligonucleotides” (The United States of America as represented by the …).

Data set [1] concerns p210^bcr-abl protein level in K562 cells. The data set is described as follows: Western analysis of p210bcr-abl protein level in ODN treated K562 cells. To be noted: one hour after electroporation with 100 μM ODN. In kind it is cell-based, human. The method, then: For p210^bcr-abl Western analysis, probing was carried out with the ECL Western blotting kit (Amersham) according to manufacturer's instructions. Briefly, membranes were blocked in 5% non-fat dry milk in TTBS for 1 hour, incubated with anti-p210^bcr-abl antibody (clone 8E9, Pharmingen, San Diego, Calif.) diluted 1:500 in TTBS for 1 hour, with sheep anti-mouse horseradish peroxidase-linked antibody (diluted 1:1000) for 1 hour, and lastly incubated in a luminol based detection solution for 1 minute. Membranes were exposed to Kodak X-OMAT AR film for various time periods.
Electroporation was performed as described (40). Briefly, 1-5×10^6 cells in 1 ml of RPMI 1640 with 10% fetal calf serum were placed into 0.4 cm gap electroporation chambers and electroporated with a Cell-Porator Electroporation System 1 (all from GIBCO BRL, Grand Island, N.Y.) at 800 microfarrads, 300 volts, at room temperature. Cells were then incubated at 37° C. for 1 hour before manipulation.

Data set [2] has as its system Epidermal growth factor receptor (EGFR). The data set is described as follows: EGFR autophosphorylation immunoprecipitation kinase assay. Type of data set: biochemical. An excerpt: (§1) The p210^bcr-abl kinase, src kinase and cdc-2 kinase were immunoprecipitated from K562 cells. The p145^abl kinase was immunoprecipitated from PC3M cells, PDGF receptor kinase from 3T3 cells, and EGF receptor kinase from A431 cells. MAP kinase was utilized as a pure protein and lck kinase was immunoprecipitated from peripheral blood lymphocytes of a normal volunteer.
(§2) Epidermal growth factor receptor (EGFR) was immunoprecipitated with 10 ,g anti-EGFR antibody (clone LA1) and human recombinant epidermal growth factor (both from Upstate Biotechnology Inc., Lake Placid, N.Y.). The assay was performed as described (17) but without removing the EGFR from the protein A-antibody solid support. Instead, epidermal growth factor, at a final concentration of 100 nM, was added to the kinase reaction mixture. Platelet derived growth factor receptor (DGFR) was immunoprecipitated with anti-human type A/type B PDGFR antibody (Upstate Biotechnology Inc.) and immune complex kinase assays performed as referenced (18) except that protein A-Sepharose coated with rabbit anti-mouse immunoglobulin was used instead of formalin-fixed Staphylococcus aureus to bind PDGFR-antibody conjugates. C-src was immunoprecipitated with anti-v-src antibody (Ab-1; Oncogene Science) and assayed as previously described (19) with the addition of enolase as exogenous substrate. […]

In data set [3] the test system is cdc-2 kinase. The data set is described as follows: cdc-2 kinase assay with dephosphorylated casein. In kind it is biochemical, human. To be noted: Cerenkov counting of excised gel slices.
Excerpt: as §1, §2

Data set [4] deals with src kinase. Briefly: Immunoprecipitation kinase assay of c-src with enolase as substrate. In kind it is biochemical, human.
Excerpt: as §1, §2

Data set [5] deals with K562 cells. Briefly: K562 colony formation in soft agar. Type of data set: cell-based, human. The note with it: 50 μM ODN, two weeks, not electroporated. As for the experimental part: K562, NIH 3T3, and A431 cells were purchased from the American Type Culture Collection (Rockville, Md.). PC3M prostate cancer cells were a generous gift from J. Trepel (National Institutes of Health, Bethesda, Md.). K562 and PC3M cells were cultured in RPMI 1640 with 10% heat-inactivated fetal bovine serum (FBS; GIBCO BRL, Grand Island, N.Y.) while NIH 3T3 and A431 cells were cultured in Dulbecco's modified Eagle's medium (Biofluids, Rockville, Md.) with 10% heat inactivated FBS. Cells were maintained at 37° C., 6% carbon dioxide with biweekly media changes. For soft agar cloning, cells were suspended in 0.3% low melting temperature agarose (SeaPlaque FMC BioProducts, Rockland, Me.) in RPMI 1640 with 10% total calf serum and maintained as above.
To evaluate the effects of these various ODNs of K562 cell growth, both growth in liquid culture and growth in soft agar were examined. […] Cells were electroporated in the presence of 50 μM ODN and kept in liquid culture. For soft agar cloning experiments, cells were not electroporated, but were grown in the presence of 50 μM ODN for two weeks. Liquid cultures were replenished with fresh medium containing 50 μM ODN. Two weeks following incubation in liquid culture, the number of trypan blue-excluding cells was determined. No effect on cell growth in liquid culture could be observed with any ODN tested (data not shown).

Data set [6] has as its system p210^bcr-abl kinase. The data set is described as follows: Phosphorylation of exogenous substrate enolase by p210bcr-abl. In kind it is biochemical, human. As for the experimental part:
Immunoprecipitation kinase assays of p210^bcr-abl p145^abl were performed as described, with modifications (15). Briefly, for p210^bcr-abl, 1 μg of anti-bcr antibody (clone 7C6, Oncogene Science, Uniondale, N.Y.) was added to lysates prepared from 0.5-1×10^6 K562 cells. For p145^abl, 1 μg of anti-c-abl antibody (clone 24-21), which binds to the C-terminal domain of p145^abl, was added to lysates prepared from 5×10^6 PC3M cells. After incubating 1 hour at 4° C., complexes were precipitated by incubating with protein A-Sepharose coated with rabbit anti-mouse immunoglobulin (Cappel Research Products, Durham, N.C.) for 30 minutes. The complexes were then washed as follows: ABL lysis buffer×2, PBS×1, and ABL assay buffer×1 (24 mM imidazole, pH 7.2, 1 mg/ml bovine serum albumin, and 10 mM MnCl). For p145^abl assays ABL assay buffer contained 20 mM MnCl. To access the activity of p210^bcr-abl on substrate phosphorylation, acid inactivated enolase (Sigma Chemical Co., St. Louis, Mo.) was added as described (15).
ODNs were added to kinase reaction buffers not more than 5 minutes prior to the addition of ATP. […]
P210^bcr-abl from K562 cells was immunoprecipitated and kinase assays performed in the presence or absence of 1 μM BCR-AS with varying amounts of enolase present. […] Note that inhibition of autophosphorylation can be readily seen in the absence of enolase (see lanes 5 and 10).

Setting [7] is: Cerenkov counting of excised gel slices.
[8] abbreviates: ODN1 concentrations greater than 2 logs above the Ki for p210^bcr-abl.

For the substance “5'-GTCCACCATGGCGCGGCCGGC-3' [ODN1] (phosphorothioate caps, further chemistry not given here) [21mer ODN complementary to nucleotides -12 to +9 of the p210bcr-abl mRNA, phosphorothioate capped unless otherwise specified]”, in data set [1], the “p210^bcr-abl protein level” value is listed as “no decrement”. Further, the IC50 in data set [2] (setting [7]) is over 100 µM; in data set [3], over 50 µM; in data set [4] (setting [7]), over 100 µM. Moreover, the “inhibition of EGF receptor (in words)” value in data set [2] (setting [8]) is “not significantly inhibited”. In addition, the “inhibition of src (in words)” value in data set [4] (setting [8]) is on record as “not significantly inhibited”. In data set [5], the “ability to form colonies in soft agar” value is “inhibited the ability of these cells to form colonies in soft agar”. In addition, the “phosphorylation of enolase by p210^bcr-abl” value in data set [6] (1 μM BCR-AS, varying amounts of enolase, three minute reaction) is recorded as “no effect”. Also, in data set [6] (ODN1 concentrations of up to 50 μM), the “inhibition of enolase phosphorylation by p210^bcr-abl” value is on record as “no significant inhibition”.
